Reference: US20100035871A1, “BENZOXAZINE DERIVATIVES AND USES THEREOF” (priority 2006, published 2010)
Counter-ions that a name gives are not always drawn.

melting point	SMILES
230 to 232 °C	COc1ccc(-c2cccc3c2OC(CN)CN3)c(C)c1 (racemic) (as salt: hydrochloride) [Example 24, 1-[8-(4-Methoxy-2-methylphenyl)-3,4-dihydro-2H-1,4-benzoxazin-2-yl]methanamine]
98 °C (dec.)	NCC1COc2cc(Cl)cc(-c3ccc(C(F)(F)F)cc3C(F)(F)F)c2N1 (racemic) (as salt: hydrochloride) [Example 38, 1-{5-[2,4-bis(trifluoromethyl)phenyl]-7-chloro-3,4-dihydro-2H-1,4-benzoxazin-3-yl}methanamine]
95 °C (dec.)	NCC1COc2cc(Cl)cc(-c3ccc(Cl)cc3C(F)(F)F)c2N1 (racemic) (as salt: hydrochloride) [Example 37, 1-{7-chloro-5-[4-chloro-2-(trifluoromethyl)phenyl]-3,4-dihydro-2H-1,4-benzoxazin-3-yl}methanamine]
80 °C (dec.)	CN1CC(CN)Oc2c(-c3ccccc3)cccc21 (racemic) (as salt: hydrochloride) [Example 9, 1-(4-Methyl-8-phenyl-3,4-dihydro-2H-1,4-benzoxazin-2-yl)methanamine]
92 °C (dec.)	NCC1COc2cc(Cl)cc(-c3ccccc3)c2N1 (racemic) (as salt: hydrochloride) [Example 29, 1-(7-chloro-5-phenyl-3,4-dihydro-2H-1,4-benzoxazin-3-yl)methanamine]
145 °C (dec.)	NC[C@H]1CNc2cccc(-c3ccccc3Cl)c2O1 (as salt: hydrochloride) [Example 39, 1-[(2S)-8-(2-chlorophenyl)-3,4-dihydro-2H-1,4-benzoxazin-2-yl]methanamine]
106 °C (dec.)	COc1ccc(-c2cc(Cl)cc3c2N(C)C(CN)CO3)c(C)c1 (racemic) (as salt: hydrochloride) [Example 28, 1-[7-chloro-5-(4-methoxy-2-methylphenyl)-4-methyl-3,4-dihydro-2H-1,4-benzoxazin-3-yl]methanamine]
90 °C (dec.)	CN1CC(CN)Oc2c(-c3ccc(Cl)cc3Cl)cccc21 (racemic) (as salt: hydrochloride) [Example 3, 1-[8-(2,4-Dichlorophenyl)-4-methyl-3,4-dihydro-2H-1,4-benzoxazin-2-yl]methanamine]
130 °C (dec.)	NC[C@@H]1CNc2cccc(-c3cc(Cl)ccc3Cl)c2O1 (as salt: hydrochloride) [Example 53, 1-[(2R)-8-(2,5-dichlorophenyl)-3,4-dihydro-2H-1,4-benzoxazin-2-yl]methanamine]
180 °C (dec.)	NC[C@@H]1CNc2cccc(-c3ccccc3C(F)(F)F)c2O1 (as salt: hydrochloride) [Example 41, 1-{(2R)-8-[2-(trifluoromethyl)phenyl]-3,4-dihydro-2H-1,4-benzoxazin-2-yl}methanamine]
78 °C (dec.)	Cc1ccccc1-c1cc(F)cc2c1NC(CN)CO2 (racemic) (as salt: hydrochloride) [Example 58, 1-[7-fluoro-5-(2-methylphenyl)-3,4-dihydro-2H-1,4-benzoxazin-3-yl]methanamine]
76 °C (dec.)	NCC1COc2cc(F)cc(-c3cccc(Cl)c3)c2N1 (racemic) (as salt: hydrochloride) [Example 65, 1-[5-(3-chlorophenyl)-7-fluoro-3,4-dihydro-2H-1,4-benzoxazin-3-yl]methanamine]
85 °C (dec.)	COc1ccc(-c2cccc3c2OC(CN)CN3C)c(C)c1 (racemic) (as salt: hydrochloride) [Example 5, 1-[8-(4-Methoxy-2-methylphenyl)-4-methyl-3,4-dihydro-2H-1,4-benzoxazin-2-yl]methanamine]
140 °C (dec.)	NCC1CNc2cccc(-c3ccccc3Cl)c2O1 (racemic) (as salt: hydrochloride) [Example 16, 1-[8-(2-Chlorophenyl)-3,4-dihydro-2H-1,4-benzoxazin-2-yl]methanamine]
134 °C (dec.)	CN1CC(CN)Oc2c(-c3cccc(Cl)c3)cccc21 (racemic) (as salt: hydrochloride) [Example 66, 1-[8-(3-chlorophenyl)-4-methyl-3,4-dihydro-2H-1,4-benzoxazin-2-yl]methanamine]
90 °C (dec.)	CN1CC(CN)Oc2c(-c3cc(Cl)ccc3Cl)cccc21 (racemic) (as salt: hydrochloride) [Example 13, 1-[8-(2,5-Dichlorophenyl)-4-methyl-3,4-dihydro-2H-1,4-benzoxazin-2-yl]methanamine]
95 °C (dec.)	NCC1COc2cc(Cl)cc(-c3ccccc3F)c2N1 (racemic) (as salt: hydrochloride) [Example 33, 1-[7-chloro-5-(2-fluorophenyl)-3,4-dihydro-2H-1,4-benzoxazin-3-yl]methanamine]
90 °C (dec.)	CN1CC(CN)Oc2c(-c3ccccc3C(F)(F)F)cccc21 (racemic) (as salt: hydrochloride) [Example 4, 1-{4-Methyl-8-[2-(trifluoromethyl)phenyl]-3,4-dihydro-2H-1,4-benzoxazin-2-yl}methanamine]

melting point	SMILES
215 °C (dec.)	COc1ccc(-c2cccc3c2O[C@@H](CN)CN3)c(Cl)c1 (as salt: hydrochloride) [Example 52, 1-[(2S)-8-(2-chloro-4-methoxyphenyl)-3,4-dihydro-2H-1,4-benzoxazin-2-yl]methanamine]
92 °C (dec.)	Cc1ccccc1-c1cccc2c1OC(CN)CN2C (racemic) (as salt: hydrochloride) [Example 8, 1-[4-Methyl-8-(2-methylphenyl)-3,4-dihydro-2H-1,4-benzoxazin-2-yl]methanamine]
179 °C (dec.)	NC[C@H]1CNc2cccc(-c3ccccc3C(F)(F)F)c2O1 (as salt: hydrochloride) [Example 47, 1-{(2S)-8-[2-(trifluoromethyl)phenyl]-3,4-dihydro-2H-1,4-benzoxazin-2-yl}methanamine]
203 °C (dec.)	NC[C@@H]1CNc2cccc(-c3ccc(Cl)cc3C(F)(F)F)c2O1 (as salt: hydrochloride) [Example 67, 1-{(2R)-8-[4-chloro-2-(trifluoromethyl)phenyl]-3,4-dihydro-2H-1,4-benzoxazin-2-yl}methanamine]
163 °C (dec.)	NC[C@@H]1CNc2cccc(-c3ccc(Cl)cc3Cl)c2O1 (as salt: hydrochloride) [Example 54, 1-[(2R)-8-(2,4-dichlorophenyl)-3,4-dihydro-2H-1,4-benzoxazin-2-yl]methanamine]
221 °C (dec.)	COc1ccc(-c2cccc3c2O[C@H](CN)CN3)c(C)c1 (as salt: hydrochloride) [Example 44, 1-[(2R)-8-(4-methoxy-2-methylphenyl)-3,4-dihydro-2H-1,4-benzoxazin-2-yl]methanamine]
109 to 112 °C	Cc1cc(Cl)ccc1-c1cccc2c1OC(CN)CN2C (racemic) (as salt: hydrochloride) [Example 2, 1-[8-(4-Chloro-2-methylphenyl)-4-methyl-3,4-dihydro-2H-1,4-benzoxazin-2-yl]methanamine]
90 °C (dec.)	COc1ccccc1-c1cccc2c1OC(CN)CN2C (racemic) (as salt: hydrochloride) [Example 1, 1-[8-(2-Methoxyphenyl)-4-methyl-3,4-dihydro-2H-1,4-benzoxazin-2-yl]methanamine]
196 °C (dec.)	COc1ccc(-c2cccc3c2O[C@H](CN)CN3)cc1 (as salt: hydrochloride) [Example 45, 1-[(2R)-8-(4-methoxyphenyl)-3,4-dihydro-2H-1,4-benzoxazin-2-yl]methanamine]
190 °C (dec.)	NC[C@H]1CNc2cccc(-c3ccccc3F)c2O1 (as salt: hydrochloride) [Example 49, 1-[(2S)-8-(2-fluorophenyl)-3,4-dihydro-2H-1,4-benzoxazin-2-yl]methanamine]
86 °C (dec.)	NCC1COc2cc(F)cc(-c3ccccc3Cl)c2N1 (racemic) (as salt: hydrochloride) [Example 57, 1-[5-(2-chlorophenyl)-7-fluoro-3,4-dihydro-2H-1,4-benzoxazin-3-yl]methanamine]
195 °C (dec.)	Cc1cc(Cl)ccc1-c1cccc2c1O[C@H](CN)CN2 (as salt: hydrochloride) [Example 42, 1-[(2R)-8-(4-chloro-2-methylphenyl)-3,4-dihydro-2H-1,4-benzoxazin-2-yl]methanamine]
90 °C (dec.)	Cc1cc(Cl)ccc1-c1cc(F)cc2c1NC(CN)CO2 (racemic) (as salt: hydrochloride) [Example 63, 1-[5-(4-chloro-2-methylphenyl)-7-fluoro-3,4-dihydro-2H-1,4-benzoxazin-3-yl]methanamine]
101 °C (dec.)	COc1ccc(-c2cc(Cl)cc3c2NC(CN)CO3)cc1 (racemic) (as salt: hydrochloride) [Example 26, 1-[7-Chloro-5-(4-methoxyphenyl)-3,4-dihydro-2H-1,4-benzoxazin-3-yl]methanamine]
100 °C (dec.)	COc1ccccc1-c1cc(Cl)cc2c1NC(CN)CO2 (racemic) (as salt: hydrochloride) [Example 34, 1-[7-chloro-5-(2-methoxyphenyl)-3,4-dihydro-2H-1,4-benzoxazin-3-yl]methanamine]
84 °C (dec.)	COc1ccccc1-c1cc(F)cc2c1NC(CN)CO2 (racemic) (as salt: hydrochloride) [Example 64, 1-[7-fluoro-5-(2-methoxyphenyl)-3,4-dihydro-2H-1,4-benzoxazin-3-yl]methanamine]
99 °C (dec.)	NCC1COc2cc(F)cc(-c3ccccc3C(F)(F)F)c2N1 (racemic) (as salt: hydrochloride) [Example 55, 1-{7-fluoro-5-[2-(trifluoromethyl)phenyl]-3,4-dihydro-2H-1,4-benzoxazin-3-yl}methanamine]
86 °C (dec.)	Cc1ccc(-c2cc(F)cc3c2NC(CN)CO3)c(C(F)(F)F)c1 (racemic) (as salt: hydrochloride) [Example 60, 1-{7-fluoro-5-[4-methyl-2-(trifluoromethyl)phenyl]-3,4-dihydro-2H-1,4-benzoxazin-3-yl}methanamine]
